According to patent US8785614B2, “Aberrantly methylated genes in pancreatic cancer” (The Johns Hopkins University, priority 2003, dated 2014):

Assays:
[1] = tested on: Hs766T pancreatic cancer cell line; experiment: Oligonucleotide microarray gene expression after TSA (1 μM, 24 h) vs mock; assay type: cell-based, human
Source text: (§1) These include a large panel of novel targets for silencing by histone deacetylation including several known tumor suppressor genes or cell cycle-regulatory genes (ING1, p57KIP2, CHES1, CHFR, GADD45B, and others).

[2] = tested on: AsPC1 pancreatic cancer cell line; experiment: as above; assay type: cell-based, human
Source text: as §1

Compound: CC(/C=C/C(=O)NO)=C\[C@@H](C)C(=O)c1ccc(N(C)C)cc1 [TSA, trichostatin A]
- Fold-change after TSA treatment ([1]; HPSE, Hs766T): −1.12 fold
- transcripts with marked induction ([1]; Hs766T): 349 transcripts
- transcripts with marked induction, share of transcripts analyzed ([1]; Hs766T): 1.9%
- Fold-change after TSA treatment ([1]; ID2, Hs766T): 5 fold
- Fold-change after TSA treatment ([1]; ING1, Hs766T): 11.83 fold
- Fold-change after TSA treatment ([1]; KLK12, Hs766T): 1.54 fold
- Fold-change after TSA treatment ([1]; MAGE1, Hs766T): 0.49 fold
- Fold-change after TSA treatment ([1]; MBD1, Hs766T): 7.94 fold
- Fold-change after TSA treatment ([1]; MMP1, Hs766T): 1.63 fold
- Fold-change after TSA treatment ([1]; NGFR, Hs766T): 4.11 fold
- Fold-change after TSA treatment ([1]; NOTCH3, Hs766T): 2.06 fold
- Fold-change after TSA treatment ([1]; P-glycoprotein (mdr1), Hs766T): 5.74 fold
- Fold-change after TSA treatment ([1]; SPANXA1, Hs766T): 15.92 fold
- Fold-change after TSA treatment ([1]; STC1, Hs766T): −1.31 fold
- Fold-change after TSA treatment ([1]; UCPH, Hs766T): −1.45 fold
- Fold-change after TSA treatment ([1]; ULBP2, Hs766T): 3.47 fold
- Fold-change after TSA treatment ([1]; WNT4, Hs766T): 0.81 fold
- Fold-change after TSA treatment ([1]; candidate tumor suppressor gene 21 protein (AF040708), Hs766T): 5.14 fold
- Fold-change after TSA treatment ([1]; connective tissue growth factor (M92934), Hs766T): 43 fold
- Fold-change after TSA treatment ([1]; hemoglobin, alpha 1 (HBAI), Hs766T): 1.55 fold
- Fold-change after TSA treatment ([1]; interleukin 8, Hs766T): −1.42 fold
- Fold-change after TSA treatment ([1]; period homolog 1 (PERI), Hs766T): 9.7 fold
- Fold-change after TSA treatment ([1]; prostate differentiation factor (AF003934), Hs766T): 3.17 fold
- Fold-change after TSA treatment ([1]; protease inhibitor 12 (neuroserpin) (SERPINU), Hs766T): 1.95 fold
- Fold-change after TSA treatment ([1]; synovial sarcoma, X breakpoint 1 (BC001003), Hs766T): 38.74 fold
- Fold-change after TSA treatment ([1]; tissue factor pathway inhibitor-2 (L27624), Hs766T): 120.09 fold
- Fold-change after TSA treatment ([2]; ADM, AsPC1): 7.6 fold
- Fold-change after TSA treatment ([2]; ANGPT1, AsPC1): −1.77 fold
- Fold-change after TSA treatment ([2]; AREG, AsPC1): 18.35 fold
- Fold-change after TSA treatment ([2]; ATF3, AsPC1): 8.73 fold
- transcripts with marked induction ([2]; AsPC1): 424 transcripts
- transcripts with marked induction, share of transcripts analyzed ([2]; AsPC1): 2.3%
- Fold-change after TSA treatment ([2]; BIK, AsPC1): 1.65 fold
- Fold-change after TSA treatment ([2]; CACNA1G, AsPC1): 9.95 fold
- Fold-change after TSA treatment ([2]; CAPN5, AsPC1): 1.73 fold
- Fold-change after TSA treatment ([2]; CDH8, AsPC1): 1.11 fold
- Fold-change after TSA treatment ([2]; CDKN1C, AsPC1): 10.62 fold
- Fold-change after TSA treatment ([2]; CGR11, AsPC1): −1.39 fold
- Fold-change after TSA treatment ([2]; CHES1, AsPC1): 1.87 fold
- Fold-change after TSA treatment ([2]; CHFR, AsPC1): −1.1 fold
- Fold-change after TSA treatment ([2]; CLDN15, AsPC1): −4.26 fold
- Fold-change after TSA treatment ([2]; EDR1, AsPC1): 4.56 fold
- Fold-change after TSA treatment ([2]; EGR4, AsPC1): 37.6 fold
- Fold-change after TSA treatment ([2]; EREG, AsPC1): 1.91 fold
- Fold-change after TSA treatment ([2]; GADD45B, AsPC1): 2.65 fold
- Fold-change after TSA treatment ([2]; GAGE1, AsPC1): 0.66 fold
- Fold-change after TSA treatment ([2]; GAGE2, AsPC1): −2.5 fold
- Fold-change after TSA treatment ([2]; GAGE3, AsPC1): −5.88 fold
- Fold-change after TSA treatment ([2]; GAGE4, AsPC1): −1.67 fold
- Fold-change after TSA treatment ([2]; GAGE6, AsPC1): −1.16 fold
- Fold-change after TSA treatment ([2]; GAGE7B, AsPC1): −4.88 fold
- Fold-change after TSA treatment ([2]; H1 historic family, member 2 (BC002649), AsPC1): 6.64 fold
- Fold-change after TSA treatment ([2]; HEP27, AsPC1): 413.37 fold
- Fold-change after TSA treatment ([2]; HMOX1, AsPC1): 1.73 fold
- Fold-change after TSA treatment ([2]; HPSE, AsPC1): 2.18 fold
- Fold-change after TSA treatment ([2]; ID2, AsPC1): 10.26 fold
- Fold-change after TSA treatment ([2]; ING1, AsPC1): 13.22 fold
- Fold-change after TSA treatment ([2]; KLK12, AsPC1): 7.63 fold
- Fold-change after TSA treatment ([2]; MAGE1, AsPC1): 1.05 fold
- Fold-change after TSA treatment ([2]; MBD1, AsPC1): 2.66 fold
- Fold-change after TSA treatment ([2]; MMP1, AsPC1): 9.05 fold
- Fold-change after TSA treatment ([2]; NGFR, AsPC1): 0.76 fold
- Fold-change after TSA treatment ([2]; NOTCH3, AsPC1): 7.93 fold
- Fold-change after TSA treatment ([2]; P-glycoprotein (mdr1), AsPC1): 1.08 fold
- Fold-change after TSA treatment ([2]; SPANXA1, AsPC1): −0.78 fold
- Fold-change after TSA treatment ([2]; STC1, AsPC1): 15.9 fold
- Fold-change after TSA treatment ([2]; UCPH, AsPC1): 5.48 fold
- Fold-change after TSA treatment ([2]; ULBP2, AsPC1): 73.47 fold
- Fold-change after TSA treatment ([2]; WNT4, AsPC1): 5.72 fold
- Fold-change after TSA treatment ([2]; candidate tumor suppressor gene 21 protein (AF040708), AsPC1): −1.47 fold
- Fold-change after TSA treatment ([2]; connective tissue growth factor (M92934), AsPC1): 17.38 fold
- Fold-change after TSA treatment ([2]; hemoglobin, alpha 1 (HBAI), AsPC1): 20.5 fold
- Fold-change after TSA treatment ([2]; interleukin 8, AsPC1): 44.67 fold
- Fold-change after TSA treatment ([2]; period homolog 1 (PERI), AsPC1): 20.29 fold
- Fold-change after TSA treatment ([2]; prostate differentiation factor (AF003934), AsPC1): 4.45 fold
- Fold-change after TSA treatment ([2]; protease inhibitor 12 (neuroserpin) (SERPINU), AsPC1): 8 fold
- Fold-change after TSA treatment ([2]; synovial sarcoma, X breakpoint 1 (BC001003), AsPC1): 1.74 fold
- Fold-change after TSA treatment ([2]; tissue factor pathway inhibitor-2 (L27624), AsPC1): 0.4 fold
